Values of other authors in patent US5672605A, “Macrolide immunomodulators” (Abbott Laboratories, priority 1995, dated 1997).

How the values were obtained:
Candida albicans = conditions: particularly against Candida albicans, both in vitro and in vivo
[1] = test system: adjuvant arthritis model, a model for rheumatoid arthritis; conditions: in vivo
[2] = rapamycin alone or in combination with picibanil
[3] = test system: experimental allergic encephalomyelitis model, a model for multiple sclerosis; conditions: in vivo

SMILES | binding to FKBP-12, in words (FKBP-12) | inhibition of the formation of IgE-like antibodies (IgE-like antibodies) | antifungal activity, in words (Candida albicans) | immunosuppressant effect in adjuvant arthritis model [1] | antitumor activity, in words [2] | immunosuppressant effect in experimental allergic encephalomyelitis model [3]
C=CC[C@@H]1/C=C(\C)C[C@H](C)C[C@H](OC)[C@H]2O[C@@](O)(C(=O)C(=O)N3CCCC[C@H]3C(=O)O[C@H](/C(C)=C/[C@@H]3CC[C@@H](O)[C@H](OC)C3)[C@H](C)[C@@H](O)CC1=O)[C@H](C)C[C@@H]2OC [FK-506] | binds to FKBP-12 |  |  |  |  | 
CO[C@H]1C[C@@H]2CC[C@@H](C)[C@@](O)(O2)C(=O)C(=O)N2CCCC[C@H]2C(=O)O[C@H]([C@H](C)C[C@@H]2CC[C@@H](O)[C@H](OC)C2)CC(=O)[C@H](C)/C=C(\C)[C@@H](O)[C@@H](OC)C(=O)[C@H](C)C[C@H](C)/C=C/C=C/C=C/1C [rapamycin] | binds to FKBP-12 | effectively inhibit the formation of IgE-like antibodies | antifungal activity | effective as an immunosuppressant | antitumor activity | effective as an immunosuppressant
